In US5250542A, “Peripherally selective piperidine carboxylate opioid antagonists” (Eli Lilly and Company, priority 1992, dated 1993):
Structures can show the parent of a compound that is named as a salt. Where two headings read alike, the source gives them in different places.

Assays:
mu receptor = molecular target: T1, mu receptor (Rattus norvegicus, UniProt P33535); assay: opioid receptor binding assay, [3H] NAL (tritiated naloxone), mu receptor; design: species or system rat (Male Sprague Dawley), brain minus cerebellum; conditions: for inhibition at 0.01 µM / inhibition at 0.1 µM: 20 min
T1 construct: rat whole brain minus cerebellum for mu was homogenized; from tissue; host or cells: brain of male Sprague Dawley rats, whole brain minus cerebellum, homogenate fraction
T1 sequence (P33535 whole entry): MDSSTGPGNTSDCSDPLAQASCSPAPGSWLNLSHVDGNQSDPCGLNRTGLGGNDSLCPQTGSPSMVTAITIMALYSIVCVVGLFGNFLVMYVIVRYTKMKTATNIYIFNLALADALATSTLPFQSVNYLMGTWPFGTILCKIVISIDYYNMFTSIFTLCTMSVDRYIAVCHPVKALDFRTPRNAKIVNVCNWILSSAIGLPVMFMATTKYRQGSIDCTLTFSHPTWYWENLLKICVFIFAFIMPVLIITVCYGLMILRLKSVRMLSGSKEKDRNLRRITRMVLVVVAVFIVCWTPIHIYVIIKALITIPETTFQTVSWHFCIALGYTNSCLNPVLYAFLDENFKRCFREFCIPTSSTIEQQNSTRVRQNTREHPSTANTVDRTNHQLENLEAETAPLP
Experimental: This assay was conducted by the following procedure.
Male Sprague Dawley rats for mu site experiments were sacrificed via decapitation and the brains were removed. The brain tissue, rat whole brain minus cerebellum for mu was homogenized in a Teflon and glass tissue homogenizer. A supernatant I, pellet IV, fraction was frozen in a nitrogen freezer at 1.33 g/ml concentration and stored for not longer than five weeks prior to use. Pellets were rehydrated with physiological buffer prior to use.
The reaction was initiated by the addition of the resuspended tissue which had been preincubated at 37° C. for 20 minutes. The reaction mixture was incubated in a 37° C. water bath for 20 minutes. The reaction was terminated by rapid filtration, (Brandel Cell Harvestor), through Whatman GF/B glass filters that had been presoaked in Krebs-Hepes buffer pH 7.4. The filters were then washed 2x with 5 ml of ice cold Krebs-Hepes buffer pH 7.4. Washed filters were placed in scintillation vials and 10 ml RedySolv, (Brandel), was added and samples counted in a Searle D-300 beta counter. Means and standard error statistics were calculated for triplicate experimental determinations in certain cases. The incubation time for the reaction mixture was 20 minutes at 37° C.
Ki values were calculated using a minitab statistical program according to the following formula: [formula] wherein IC50 is the concentration at which 50% of the ^3 H ligand is displaced by the test compounds and KD is the dissociation constant for the ^3 H ligand at the receptor site. KD can be determined as described by Bennett, "Methods in Binding Studies", Neurotransmitter Receptor Binding, Yamamura, et al., ed., p. 57-90, Raven Press, N.Y. (1978) incorporated herein by reference.
In the Table, column 1 sets forth the Example Number of the compound evaluated, column 2 the Ki value in nanomolar (nM) at the mu receptor and columns 3 and 4 the percent displacement by the test compound at the indicated concentration, i.e., 10 nm or 100 nm.

[1] = molecular target: T2, peripheral opioid receptors (Mus musculus, UniProt P42866); assay: precipitated diarrhea in morphine-maintained mice (peripheral opioid activity) and comparison with the writhing test; assay type: in vivo; conditions: for Ratio (AD50 mouse writhing test / ED50 mouse diarrhea test): higher ratio = greater relative antagonism of peripheral opioid receptors; for ED50: mouse, 0.5 h, morphine-maintained mice, antagonist subcutaneous or oral, 30 min observation
T2 construct: Mice maintained (6 mice/cage) on 0.01M saccharin water with 1 g/1 morphine sulfate; from tissue; host or cells: living morphine-maintained mice (in vivo test; endogenous receptor)
T2 sequence (P42866 whole entry): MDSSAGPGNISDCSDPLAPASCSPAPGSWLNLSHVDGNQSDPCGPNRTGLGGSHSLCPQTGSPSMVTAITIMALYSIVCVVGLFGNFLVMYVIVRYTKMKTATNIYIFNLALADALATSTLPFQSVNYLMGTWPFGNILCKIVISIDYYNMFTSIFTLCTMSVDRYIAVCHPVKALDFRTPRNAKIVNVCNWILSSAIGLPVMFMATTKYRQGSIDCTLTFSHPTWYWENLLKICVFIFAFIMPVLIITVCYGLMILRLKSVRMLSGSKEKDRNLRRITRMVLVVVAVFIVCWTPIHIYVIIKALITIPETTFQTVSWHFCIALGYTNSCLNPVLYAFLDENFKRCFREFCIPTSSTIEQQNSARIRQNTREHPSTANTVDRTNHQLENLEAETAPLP
Experimental: Determinations of peripheral opioid activity were conducted. Mice maintained (6 mice/cage) on 0.01M saccharin water with 1 g/1 morphine sulfate for a minimum of 10 days with mice averaging 3.0^+ g water/mouse/day for at least three days are used as subjects. The morphine water was removed 45 min. prior to injection with the proposed opioid antagonist. Initial testing consisted of 5 mice/dose of compound. The antagonist was given by the subcutaneous or oral, route of administration,and the mice were placed in 11-14"×4 7/12 I.D. clear plastic cylinders with white paper towels used for a floor.
The mice were then monitored visually for 30 minutes post-injection for the presence of jumping and of diarrhea. Jumping was scored as positive if at least one jump occurred in 30 min. Diarrhea was scored as positive when feces were moist enough to stain the white paper at the base of the cylinder. After 30 minutes of testing, the mice were placed back in original cages, put back on morphine water, and not tested again for 48 hrs. Lower doses of the antagonist compounds were tested until threshold doses for diarrhea were determined. Diarrhea is a peripherally mediated sign of precipitated opiate abstinence.
The extent of the effect on peripheral activity compared to central activity of the present compounds can-be determined by comparing the AD50 for the mouse writhing test with the ED50 for the mouse diarrhea test. The higher the ratio, the greater the relative antagonism of the peripheral opioid receptors by a particular compound.

opioid receptor = molecular target: T3, opioid receptor (Mus musculus, UniProt P42866); assay: mouse writhing analgesis test: block of morphine-induced analgesia; assay type: in vivo, CF-1 male mice; design: unit not given here; conditions: dose of antagonist that reduced the inhibition of writhing produced by 1.25 mg/kg morphine sulfate to 50%; subcutaneous, 20 min before acetic acid
T3 construct: Five CF-1 male mice (Charles River, Portage, Mich.); from tissue; host or cells: living CF-1 male mice (in vivo test; endogenous receptor)
T3 sequence (P42866 whole entry): as above
Experimental: In order to determine in vivo opioid receptor antagonism, the mouse writhing analgesis test was used. Test compounds were measured for their ability to block morphine-induced analgesia.
Five CF-1 male mice (Charles River, Portage, Mich.), weighing approximately 20 g after being fasted overnight, were observed simultaneously for the writhing response. The writhing response was defined as a contraction of the abdominal musculature, followed by the extension of the hind limbs, and was induced by the intraperitoneal adminstration of 0.6% acetic acid in a volumne of 1 ml/100 g body weight. The observation period was 10 min. in duration, beginning 5 min. after injection of acetic acid. The percent inhibition of writhing was calculated from the average number of writhes in the control (non-drug) group. Each data point is the mean (±standarderror) for five mice. The ED50 was defined as the dose of agonist that inhibited mean writhing by 50%. […] Each mouse was only used once. All drugs were administered subcutaneously (1 ml/100 g bwt) 20 min. before the injection of acetic acid.

[2] = read-out: % displacement at 10 nM, 10 nM test compound, [3H] naloxone 0.5 nM
[3] = read-out: % displacement at 100 nM, 100 nM test compound, [3H] naloxone 0.5 nM

Row | Structure (SMILES) | Ki (mu receptor) | inhibition at 0.01 µM (mu receptor; [2]) | inhibition at 0.1 µM (mu receptor; [3]) | Ratio (AD50 mouse writhing test / ED50 mouse diarrhea test) [1] | ED50 [1] | AD50 (opioid receptor) | inhibition at 0.1 µM (mu receptor; read-out: % displacement at 100 nM) | inhibition at 0.01 µM (mu receptor; read-out: % displacement at 10 nM)
1 | CCOC(=O)CNC(=O)C(CCN1CC[C@@](C)(c2cccc(O)c2)[C@@H](C)C1)c1ccccc1 (relative stereo) [Example 11, 2-[[4-4-(3-hydroxyphenyl)-3,4-dimethyl-1-piperidinyl]-1-oxo-2-phenylbutyl]amino]-acetic acid ethyl ester monohydrochloride] | 0.3 nM | 81% | 89% | 141 | 0.017 mg/kg | 2.4 | – | –
2 | C[C@H]1CN(CCC(C(=O)NCC(=O)O)c2ccccc2)CC[C@@]1(C)c1cccc(O)c1 (relative stereo) [Example 12, 2-[[4-[4-(3-hydroxyphenyl)-3,4-dimethyl-1-piperidinyl]-2-phenyl-1-oxobutyl]amino]ethanoic acid monohydrate] | 1.89 nM | 84% | – | 2667 | 0.015 mg/kg | 40 | 94% | –
3 | CCNC(=O)CNC(=O)C(CCN1CC[C@@](C)(c2cccc(O)c2)[C@@H](C)C1)c1ccccc1 (relative stereo) [Example 15, N-ethyl-2-[[4-[4-(3-hydroxyphenyl)-3,4-dimethyl-1-piperidinyl]]-2-phenyl-1-oxobutylamino]-acetamide monohydrochloride monohydrate] | 1.07 nM | 99% | 100% | > 133 | 0.3 mg/kg | > 40 | – | –
4 | C[C@H]1CN(CCC(C(=O)NCCC(N)=O)C2CCCCC2)CC[C@@]1(C)c1cccc(O)c1 (relative stereo) [Example 17, monohydrochloride] | 0.43 nM | 97% | 100% | > 667 | 0.06 mg/kg | > 40 | – | –
5 | CNC(=O)CCNC(=O)C(CCN1CC[C@@](C)(c2cccc(O)c2)[C@@H](C)C1)C1CCCCC1 (relative stereo) [Example 18, N-[3-(methylamino)-3-oxopropyl]-4-[4-(3-hydroxyphenyl)-3,4-dimethyl-1-piperidinyl]-2-cyclohexyl-butanamide monohydrochloride] | 0.43 nM | 97% | – | > 888 | 0.045 mg/kg | > 40 | – | –
6 | C[C@H]1CN(CCC(C(=O)NCC(N)=O)C2CCCCC2)CC[C@@]1(C)c1cccc(O)c1 (relative stereo) [Example 20, N-(2-amino-2-oxoethyl)-4-[4-(3hydroxyphenyl)-3,4-dimethyl-1-piperidinyl]-2-cyclohexylbutanamide hydrochloride monohydrate] | 0.78 nM | 98% | 100% | 802 | 0.004 mg/kg | 32.1 | – | –
7 | CNC(=O)CNC(=O)C(CCN1CC[C@@](C)(c2cccc(O)c2)[C@@H](C)C1)C1CCCCC1 (relative stereo) [Example 21, N-[2-(methylamino)-2-oxoethyl]-4-[4-(3-hydroxyphenyl)-3,4-dimethyl-1-piperidinyl]-2-cyclohexyl butanamide hydrochloride] | 0.45 nM | 96% | 100% | > 125 | 0.16 mg/kg | > 20 | – | –
8 | CCNC(=O)CNC(=O)C(CCN1CC[C@@](C)(c2cccc(O)c2)[C@@H](C)C1)C1CCCCC1 (relative stereo) [Example 22, N-[2-(ethylamino)-2-oxoethyl]-4-[4-(3-hydroxyphenyl)-3,4-dimethyl-1-piperidinyl]-2-cyclohexyl butanamide hydrochloride] | 0.33 nM | 100% | 96% | > 500 | 0.08 mg/kg | > 40 | – | –
9 | CCOC(=O)CCCNC(=O)C(CCN1CC[C@@](C)(c2cccc(O)c2)[C@@H](C)C1)C1CCCCC1 (relative stereo) [Example 23, 4-[2-cyclohexyl-4-[4-(3-hydroxyphenyl)-3,4-dimethyl-1-piperidinyl]-1-oxobutyl]amino]-butanoic acid ethyl ester monohydrochloride monohydrate] | 1.65 nM | 100% | 96% | > 140 | 0.14 mg/kg | > 20 | – | –
10 | CNC(=O)CCCNC(=O)C(CCN1CC[C@@](C)(c2cccc(O)c2)[C@@H](C)C1)C1CCCCC1 (relative stereo) [Example 24, N-methyl-4-[[4-[4-(3-hydroxyphenyl)-3,4-dimethyl-1-piperidinyl]-2-cyclohexyl-1-oxobutyl]amino]butanamide monohydrochloride monohydrate] | 0.45 nM | 100% | 100% | > 400 | 0.1 mg/kg | > 40 | – | –
11 | C[C@H]1CN(CCC(C(=O)NCCC(=O)OCc2ccccc2)C2CCCCC2)CC[C@@]1(C)c1cccc(O)c1 (relative stereo) [Example 25, 3-[[2-cyclohexyl-4-[4-(3-hydroxyphenyl)-3,4-dimethyl-1-piperidinyl]-1-oxobutyl]amino]propanoic acid phenylmethyl ester hydrochloride monohydrate] | 0.22 nM | 100% | 100% | 40 | 0.29 mg/kg | 11.5 | – | –
12 | C[C@H]1CN(CCC(C(=O)NCCC(=O)O)C2CCCCC2)CC[C@@]1(C)c1cccc(O)c1 (relative stereo) [Example 26, 3-[4-[3,4-dimethyl-4-(-3-hydroxyphenyl)-1-piperidinyl]-2-cyclohexyl-1-oxobutylamino]-propanoic acid monohydrate] | 1.17 nM | 76% | 91% | 250 | 0.03 mg/kg | 7.5 | – | –
13 | C[C@H]1CN(CCC(C(=O)NCC(=O)O)C2CCCCC2)CC[C@@]1(C)c1cccc(O)c1 (relative stereo) [Example 27, 2-[[2-cyclohexyl-4-[4-(3-hydroxyphenyl)-3,4-dimethyl-1-piperidinyl]-1-oxobutyl]amino]-acetic acid monohydrate] | 0.91 nM | – | 99% | 51 | 0.3 mg/kg | 15.3 | – | 92%
